Measurements from the supplement of paper PMC6045584.
± gives the standard deviation of the averaged measurements.

Columns and labels:
LAPATINIB = compound: CS(=O)(=O)CCNCc1ccc(-c2ccc3ncnc(Nc4ccc(OCc5cccc(F)c5)c(Cl)c4)c3c2)o1 [LAPATINIB]; assay: surviving fraction relative to DMSO-only wells; higher = less growth inhibition; conditions: exposure time: 5 days
Method in brief: (§1)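 Inhibitors were tested at 0.5, 1, 5, 10, 50, 100, 500 and 1000 nM, applied continuously for five days beginning 24 hours after log-phase tumour cells were seeded at 250–500 per well in 384-well plates. CellTiter-Glo luminescence served as the viability measure, expressed as surviving fraction against the median of DMSO-only wells. Each line, screened three times, was kept only with replicate Pearson r >0.7 and median Z' >0.3.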

RESVERATROL = compound: Oc1ccc(/C=C/c2cc(O)cc(O)c2)cc1 [RESVERATROL]; assay: as above; conditions: exposure time: 5 days
Method in brief: as §1

Test System	surviving fraction (LAPATINIB; 0.5 nM)	surviving fraction (LAPATINIB; 1 nM)	surviving fraction (LAPATINIB; 5 nM)	surviving fraction (LAPATINIB; 10 nM)	surviving fraction (LAPATINIB; 50 nM)	surviving fraction (LAPATINIB; 100 nM)	surviving fraction (LAPATINIB; 500 nM)	surviving fraction (LAPATINIB; 1000 nM)	surviving fraction (RESVERATROL; 0.5 nM)	surviving fraction (RESVERATROL; 1 nM)	surviving fraction (RESVERATROL; 5 nM)	surviving fraction (RESVERATROL; 10 nM)	surviving fraction (RESVERATROL; 50 nM)	surviving fraction (RESVERATROL; 100 nM)	surviving fraction (RESVERATROL; 500 nM)	surviving fraction (RESVERATROL; 1000 nM)
22RV1 PROSTATE	1.01 ± 0.05	1.1 ± 0.096	0.954 ± 0.076	1.01 ± 0.1	1.04 ± 0.034	1.07 ± 0.085	1.08 ± 0.12	1.11 ± 0.059	1.01 ± 0.05	1.04 ± 0.076	1.05 ± 0.067	1.04 ± 0.024	0.981 ± 0.015	1.09 ± 0.032	0.961 ± 0.12	1.05 ± 0.079
93VU HEADNECK	1.04 ± 0.13	1.09 ± 0.11	1.07 ± 0.018	1.12 ± 0.069	0.806 ± 0.021	0.827 ± 0.045	0.493 ± 0.039	0.438 ± 0.041	1.07 ± 0.11	1.07 ± 0.095	1.11 ± 0.065	1.14 ± 0.078	1.149 ± 0.0099	1.22 ± 0.16	1.1 ± 0.068	1.11 ± 0.15
143B BONE	0.986 ± 0.065	1.07 ± 0.057	0.931 ± 0.14	0.967 ± 0.11	1.01 ± 0.013	1.08 ± 0.11	1.02 ± 0.016	1.01 ± 0.021	0.925 ± 0.14	1.07 ± 0.016	1.01 ± 0.021	1.065 ± 0.0021	0.885 ± 0.19	0.947 ± 0.17	1.01 ± 0.037	1.11 ± 0.057
A549 LUNG	1.038 ± 0.0095	1.14 ± 0.044	1.06 ± 0.02	1.07 ± 0.016	1.02 ± 0.043	1.06 ± 0.05	1 ± 0.041	1.02 ± 0.036	1.03 ± 0.011	1.07 ± 0.043	1.05 ± 0.024	1.05 ± 0.026	1.04 ± 0.021	1.09 ± 0.06	1.07 ± 0.044	1.11 ± 0.062
ASKA SYNOVIAL	1.17 ± 0.046	1.1 ± 0.012	1.13 ± 0.045	1.16 ± 0.053	1.21 ± 0.092	1.19 ± 0.069	1.16 ± 0.1	1.15 ± 0.068	1.12 ± 0.019	1.15 ± 0.089	1.22 ± 0.077	1.25 ± 0.058	1.12 ± 0.13	1.22 ± 0.051	1.1 ± 0.072	1.13 ± 0.1
BT20 BREAST	1.12 ± 0.065	1.128 ± 0.0092	1.05 ± 0.048	1.12 ± 0.05	1.14 ± 0.048	1.18 ± 0.054	1.16 ± 0.045	1.38 ± 0.068	1.05 ± 0.052	1.13 ± 0.1	1.13 ± 0.038	1.15 ± 0.059	1.06 ± 0.037	1.12 ± 0.078	1.12 ± 0.19	1.25 ± 0.12
BT549 BREAST	1.1 ± 0.073	1.01 ± 0.081	0.971 ± 0.044	1.06 ± 0.043	1.07 ± 0.1	1.03 ± 0.054	1.15 ± 0.14	0.977 ± 0.085	0.97 ± 0.081	1.1 ± 0.17	0.942 ± 0.14	1.09 ± 0.06	1.16 ± 0.038	1.01 ± 0.14	1.15 ± 0.047	1.12 ± 0.028
C33A CERVIX	0.988 ± 0.07	1.03 ± 0.041	1.11 ± 0.036	1.02 ± 0.045	0.887 ± 0.037	0.859 ± 0.017	0.62 ± 0.014	0.537 ± 0.017	0.928 ± 0.045	0.933 ± 0.052	0.956 ± 0.14	0.998 ± 0.032	0.978 ± 0.028	0.974 ± 0.096	0.946 ± 0.023	0.958 ± 0.049
CADOES1 SOFT TISSUE	0.959 ± 0.045	1.06 ± 0.096	0.976 ± 0.12	0.996 ± 0.16	0.958 ± 0.096	1.09 ± 0.097	1.13 ± 0.052	1.13 ± 0.094	0.972 ± 0.09	0.939 ± 0.14	0.952 ± 0.047	0.931 ± 0.074	0.993 ± 0.023	1.02 ± 0.061	0.991 ± 0.017	1.02 ± 0.068
CAL51 BREAST	0.966 ± 0.078	1.08 ± 0.024	1.03 ± 0.055	1.02 ± 0.04	0.994 ± 0.042	1.08 ± 0.032	1.02 ± 0.089	0.989 ± 0.03	0.901 ± 0.03	1.04 ± 0.033	1.07 ± 0.034	1.03 ± 0.038	1.04 ± 0.056	1.03 ± 0.028	1.02 ± 0.047	1.1 ± 0.043
CAL72 BONE	1.13 ± 0.081	1.1 ± 0.061	1.16 ± 0.083	1.11 ± 0.055	1.11 ± 0.015	1.12 ± 0.096	1.02 ± 0.077	0.951 ± 0.17	1.07 ± 0.057	1.06 ± 0.084	1.05 ± 0.073	1.05 ± 0.12	1.05 ± 0.055	1.08 ± 0.1	1.04 ± 0.082	1.04 ± 0.12
CAL120 BREAST	1.02 ± 0.052	1.03 ± 0.044	1.02 ± 0.043	1 ± 0.039	1.04 ± 0.042	1.03 ± 0.075	0.998 ± 0.052	0.994 ± 0.045	0.966 ± 0.049	1.01 ± 0.059	0.975 ± 0.058	0.983 ± 0.069	1.02 ± 0.07	0.998 ± 0.043	1.04 ± 0.017	1.04 ± 0.056
CASKI CERVIX	0.884 ± 0.037	0.902 ± 0.013	0.952 ± 0.042	0.818 ± 0.042	0.775 ± 0.044	0.685 ± 0.021	0.426 ± 0.013	0.321 ± 0.013	0.938 ± 0.09	0.926 ± 0.033	0.959 ± 0.045	0.963 ± 0.049	1.03 ± 0.036	1.05 ± 0.099	0.993 ± 0.023	1.06 ± 0.041
CHLA90 AUTONOMIC GANGLIA	0.964 ± 0.031	0.99 ± 0.07	1.01 ± 0.052	0.947 ± 0.051	0.965 ± 0.06	0.981 ± 0.11	0.931 ± 0.073	0.875 ± 0.11	1.01 ± 0.075	0.996 ± 0.049	0.984 ± 0.024	1.03 ± 0.033	0.962 ± 0.056	1.07 ± 0.043	1.07 ± 0.064	1.08 ± 0.053
CME SYNOVIAL	1.13 ± 0.2	1.4 ± 0.13	1.43 ± 0.1	1.28 ± 0.12	1.26 ± 0.096	1.35 ± 0.19	1.2 ± 0.059	1.14 ± 0.16	1.23 ± 0.043	1.29 ± 0.045	1.4 ± 0.15	1.44 ± 0.15	1.37 ± 0.059	1.38 ± 0.14	1.33 ± 0.18	1.21 ± 0.039
COLO320DM LARGE INTESTINE	1.01 ± 0.08	1.09 ± 0.016	1.14 ± 0.026	1.2 ± 0.082	1.06 ± 0.015	1.15 ± 0.083	1.1 ± 0.05	1.12 ± 0.075	1.06 ± 0.14	1 ± 0.062	1.07 ± 0.081	1.07 ± 0.04	1.03 ± 0.063	1.15 ± 0.086	1.08 ± 0.077	1.12 ± 0.031
DU4475 BREAST	0.907 ± 0.062	1.1 ± 0.13	1.02 ± 0.079	0.944 ± 0.017	1.07 ± 0.12	0.957 ± 0.11	1.14 ± 0.11	0.932 ± 0.025	1 ± 0.13	0.973 ± 0.051	0.967 ± 0.13	0.964 ± 0.074	0.985 ± 0.1	1.05 ± 0.17	1.02 ± 0.047	1.1 ± 0.22
H23 LUNG	1.02 ± 0.071	1.1 ± 0.075	0.9837 ± 0.0059	1.01 ± 0.019	0.861 ± 0.039	0.834 ± 0.031	0.4077 ± 0.0038	0.367 ± 0.023	0.99 ± 0.019	1.06 ± 0.051	1.02 ± 0.071	1.05 ± 0.023	0.994 ± 0.044	1.07 ± 0.036	1 ± 0.034	1.11 ± 0.096
HCC78 LUNG	0.98 ± 0.029	0.972 ± 0.093	1.01 ± 0.038	0.795 ± 0.26	0.82 ± 0.075	0.944 ± 0.1	0.857 ± 0.12	0.872 ± 0.12	0.894 ± 0.15	0.894 ± 0.065	0.983 ± 0.035	1.05 ± 0.15	1.12 ± 0.2	1.03 ± 0.1	0.901 ± 0.26	0.904 ± 0.1
HCC202 BREAST	1.3 ± 0.2	0.845 ± 0.19	1.17 ± 0.43	0.937 ± 0.17	0.905 ± 0.14	0.726 ± 0.31	0.383	0.221 ± 0.029	1 ± 0.23	1.18 ± 0.11	1.14 ± 0.059	1.06 ± 0.05	1.75 ± 0.46	1.49 ± 0.42	1.32 ± 0.14	1.33 ± 0.39
